In patent US20210369677A1, “SMALL MOLECULE ACTIVATORS OF POLYCYSTIN-2 (PKD2) AND USES THEREOF” (Northwestern University, priority 2020, published 2021):
Where two headings read alike, the source gives them in different places.

How the values were obtained:
[1] = target: T1, human polycystin-2 CTD EF hand (I704-P797) (Homo sapiens, UniProt Q13563); experiment: Isothermal titration calorimetry of divalent ions into the CTD of polycystin-2; type: binding; conditions: 25° C; read-out: Ca2+ affinity (Kd) for WT human CTD EF hand
T1 construct: The C-terminal fragment of the human polycystin-2 (I704-P797) was cloned into the PET19b vector; 10xHis (N); made in house; host or cells: E. coli BL21 (DE3)
T1 sequence (Q13563 704-797): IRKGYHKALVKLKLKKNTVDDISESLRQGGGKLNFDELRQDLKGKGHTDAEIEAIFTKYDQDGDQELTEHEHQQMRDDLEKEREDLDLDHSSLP
Method: CTD protein expression, purification, and isothermal titration calorimetry. The C-terminal fragment of the human polycystin-2 (I704-P797) was cloned into the PET19b vector and transformed into BL21 (DE3) competent cells (New England Biolabs) for bacterial expression. The translated peptide has a 10×His tag on its N-terminus. The alanine mutants of the individual calcium-coordinating residues were created and transformed as well. Cells were grown in 2XYT broth in a 37° C. shaking incubator until OD600 reaches ˜0.6, and were induced by 0.4 mM isopropyl 1-thio-β-D-galactopyranoside and grown for another 4 hours. Cells were harvested and resuspended in Buffer A (500 mM NaCl, 20 mM Tris/HCl, pH 7.4), 5% glycerol, 0.25 mM EDTA pH 8.0, 1 mM PMSF (RPI), 25 μg/ml of lysozyme and DNase I (GoldBio). The suspension was then lysed by sonication and clarified by centrifugation (30,000×g for 0.5 h). Filtered supernatant was loaded into a HisPur cobalt Superflow agarose column (ThermoScientific). The column was washed with 10 column volume (CV) of buffer A, 5 CV of buffer A+5 mM imidazole, and finally eluted with 3 CV of buffer A+100 mM imidazole. The eluate was desalted by dialysis in 150 mM NaCl, 20 mM Tris/HCl, 20 mM imidazole, pH 7.4. SDS-PAGE gel confirmed the expression, solubility, and purity of the peptide. All of our solutions were formulated with ultrapure water (Milli-Q® IQ 7005 water purification system), that has less than 0.29 ng/L calcium ions present. The binding affinity is recorded based on the heat difference between the sample cell and reference cell measured by MicroCal iTC200. […] The cells were insulated by an adiabatic jacket held at 25° C. The heat of dilution of Ca^2+ was not subtracted from data sets, as the signal was prohibitively small for several of the mutant channels. The exothermic energy of the bimolecular interaction between Ca^2+ and peptide during each injection was analyzed by integrating the change in heat to generate the binding isotherm. […]

[2] = target: T1, human polycystin-2 CTD EF hand (I704-P797); conditions: Yang et al., 2015; read-out: Kd previously reported for this peptide; cited from earlier work
[3] = target: T2, human PKD2 channel proteins (WT or C331S) (Homo sapiens, UniProt Q13563); experiment: Thermal stability assay (FSEC) of purified PKD2 channel proteins; conditions: 10 mM GSH
T2 construct: purified the C331S variant of polycystin-2 (residues 53-792) protein in amphipols; made in house
T2 sequence (Q13563 53-792 C331S): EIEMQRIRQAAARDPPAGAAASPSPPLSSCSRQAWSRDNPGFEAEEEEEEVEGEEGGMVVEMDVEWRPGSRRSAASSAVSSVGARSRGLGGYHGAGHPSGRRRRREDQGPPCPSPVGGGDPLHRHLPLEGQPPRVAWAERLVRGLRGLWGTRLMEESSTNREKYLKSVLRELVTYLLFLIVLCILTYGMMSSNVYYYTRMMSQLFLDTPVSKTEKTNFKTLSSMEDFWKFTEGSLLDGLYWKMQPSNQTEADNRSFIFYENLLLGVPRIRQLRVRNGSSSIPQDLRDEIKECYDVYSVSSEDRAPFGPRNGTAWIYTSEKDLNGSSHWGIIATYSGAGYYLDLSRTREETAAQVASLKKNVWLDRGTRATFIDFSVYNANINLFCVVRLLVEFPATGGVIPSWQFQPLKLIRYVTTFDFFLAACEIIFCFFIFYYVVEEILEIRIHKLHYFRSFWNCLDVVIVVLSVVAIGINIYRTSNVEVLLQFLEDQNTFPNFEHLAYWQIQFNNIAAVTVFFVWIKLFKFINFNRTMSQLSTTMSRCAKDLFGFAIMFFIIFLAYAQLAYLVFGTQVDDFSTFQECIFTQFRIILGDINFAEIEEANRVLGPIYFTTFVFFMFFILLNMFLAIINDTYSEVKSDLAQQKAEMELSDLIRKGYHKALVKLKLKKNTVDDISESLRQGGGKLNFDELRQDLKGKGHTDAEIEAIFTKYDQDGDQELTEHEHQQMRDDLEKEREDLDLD
Method: Thermal stability assay. Approximately 9 μg of purified human PKD2 channel proteins (WT or C331S) in 30 μl buffer composed of 20 mM HEPES 150 mM NaCl, 2 mM CaCl2), 0.5 mM TCEP and 0.5 mM DDM (n-Dodecyl β-D-maltoside), at pH 7.4, were incubated at 4° C.-90° C. (4° C., room temperature, 30° C., 35.2° C., 39.3° C., 44.9° C., 49° C., 54° C., 60° C., 65.5° C., 69.4° C., 75° C., 79.3° C., 84° C., and 90° C.) for 10 minutes in a thermal cycler. To reduce the C331-C344 disulfide bond in the PKD2 channel, 10 mM GSH was added to all the buffers during purification and thermal stability assay. The treated channel samples were then diluted 10 times with the same buffer followed by centrifugation for 30 min at 40,000 rpm. 30 μl of each cleared channel samples were separated on an analytical size exclusion column (Superose™ 6 5/150 GL, GE Healthcare) at 0.3 ml/min flow rate. Proteins were detected by Tryptophan fluorescence. The FSEC-based thermostability experiments were performed in triplicates for each temperature point. The integrated area of the channel tetramer peak at different temperature points is normalized to that at 4° C. to generate the thermal stability plot.
We tested the thermal stability of PKD2 and the C331S variant in the presence or absence of NS1643. (See FIG. 33). We also performed Rosetta modeling. (See FIG. 35).

polycystin-2L1 = target: T3, polycystin-2L1 (Homo sapiens, UniProt Q9P0L9, C210S/C223S); type: cell-based; conditions: C210S:C223S mutant
T3 construct: expressed in transfected cells; host or cells: HEK cells, transient overexpression
T3 sequence (Q9P0L9 whole entry C210S/C223S): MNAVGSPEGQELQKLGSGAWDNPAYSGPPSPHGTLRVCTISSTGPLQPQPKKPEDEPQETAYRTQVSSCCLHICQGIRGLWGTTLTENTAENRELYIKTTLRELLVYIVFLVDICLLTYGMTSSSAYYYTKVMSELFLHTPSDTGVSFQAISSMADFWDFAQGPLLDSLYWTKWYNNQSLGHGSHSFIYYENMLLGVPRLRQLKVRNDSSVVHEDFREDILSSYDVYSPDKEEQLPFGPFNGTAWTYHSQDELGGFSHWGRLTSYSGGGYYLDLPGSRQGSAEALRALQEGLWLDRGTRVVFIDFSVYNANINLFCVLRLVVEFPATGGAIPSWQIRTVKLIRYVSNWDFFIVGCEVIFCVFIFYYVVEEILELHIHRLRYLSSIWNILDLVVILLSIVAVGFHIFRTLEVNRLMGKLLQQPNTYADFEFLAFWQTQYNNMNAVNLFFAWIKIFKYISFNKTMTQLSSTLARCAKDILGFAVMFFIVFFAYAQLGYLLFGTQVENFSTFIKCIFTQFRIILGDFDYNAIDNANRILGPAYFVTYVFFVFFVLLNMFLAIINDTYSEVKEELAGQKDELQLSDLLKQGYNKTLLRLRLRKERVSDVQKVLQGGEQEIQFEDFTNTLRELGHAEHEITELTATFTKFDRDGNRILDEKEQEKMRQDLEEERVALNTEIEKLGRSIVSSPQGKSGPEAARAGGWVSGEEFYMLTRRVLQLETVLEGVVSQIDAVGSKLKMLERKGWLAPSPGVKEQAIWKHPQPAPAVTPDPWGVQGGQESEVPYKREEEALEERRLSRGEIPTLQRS
Method: Electrophysiology. Ciliary ion currents were recorded using borosilicate glass electrodes polished to resistances of 14-22 MΩ using the cilium patch method previously described^32. Whole cell electrodes used to measure poly cystin-2L1 currents were fire polished to 1.5-4 MΩ resistances. Unless otherwise stated, whole cilia ionic currents were recorded in symmetrical [Na^+]. The pipette standard internal solution contained (in mM): 90 NaMES, 10 NaCl, 10 HEPES, 10 Na4-BAPTA (Glycine, N, N′-[1,2-ethanediylbis(oxy-2,1-phenylene)]bis[N-(carboxymethyl)]-,tetrasodium); pH was adjusted to 7.3 using NaOH. Standard bath solution contained 140 NaCl, 10 HEPES, 1.8 CaCl2); pH 7.4. All solutions were osmotically balanced to 295 (±6) mOsm with mannitol. Extracellular solutions containing TCEP and GSH were used within six hours of formulation. Data were collected using an Axopatch 200B patch clamp amplifier, Digidata 1440A, and pClamp 10 software. Whole-cilium and excised patch currents were digitized at 25 kHz and low-pass filtered at 10 kHz. In the whole cilium configuration, the holding potential was −60 mV and then depolarized using a 400 ms voltage ramp from −100 mV to 100 mV. The whole cell recordings of polycystin-2L1 currents were either activated by the same ramp protocol or by 100 ms depolarizations to 100 mV from a −100 mV holding potential. External conditions were controlled using a Warner Perfusion Fast-Step (SF-77B) system in which the patched cilia and electrode were held in the perfusate stream. Data were analyzed by Igor Pro 7.00 (Wavemetrics, Lake Oswego, Oreg.). The polycystin-2 open probability and the polycystin-2L1 tail current-voltage relationships were fit to a Boltzmann function, f(x)=1/(1+exp[V−V1/2]/k) to estimate voltage of half-maximal activation of current (V1/2).

Row | SMILES | Kd [1] [µM] | Kd [2] [µM] | Thermal denaturation of polycystin-2 channel protein under reducing conditions [3] | Effect on C210S:C223S polycystin-2L1 channel (polycystin-2L1)
1 | [Ca+2] [Ca^2+, calcium] | 19 ± 5 | 22 | – | –
2 | N[C@@H](CCC(=O)N[C@@H](CS)C(=O)NCC(=O)O)C(=O)O [GSH, reduced glutathione] | – | – | denaturing at lower temperatures | insensitive
